A value given as a limit tells only on which side of the number the result lay.

p38, sequence (Q16539 whole entry, the tested form may be a part): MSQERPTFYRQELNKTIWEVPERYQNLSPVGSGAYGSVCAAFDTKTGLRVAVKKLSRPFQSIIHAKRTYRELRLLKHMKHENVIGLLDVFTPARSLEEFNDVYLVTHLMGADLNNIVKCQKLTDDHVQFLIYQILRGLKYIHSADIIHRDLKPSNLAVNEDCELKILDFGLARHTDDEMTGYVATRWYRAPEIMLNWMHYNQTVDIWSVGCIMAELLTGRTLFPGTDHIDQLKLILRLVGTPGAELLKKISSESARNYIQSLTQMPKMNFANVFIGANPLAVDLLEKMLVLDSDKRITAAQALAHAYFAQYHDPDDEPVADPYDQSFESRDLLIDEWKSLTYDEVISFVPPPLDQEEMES

For the test, the target named is p38 (Homo sapiens, UniProt Q16539). The test is described as follows: Protein Kinase Assay (33P incorporation from γ-[33P]ATP into GST-ATF-2). The format is biochemical. Conditions: 2 nM p38, preincubated 20 min at 30° C.; 10 uM cold ATP, 2 uM GST-ATF2, 70 min; read-out: ACT. (Activity), IC50 category in Protein Kinase Assay. The procedure, abridged:
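Compounds preincubated 20 min at 30 °C with 2 nM p38; reaction started with 2 uM GST-ATF-2 (aa 19-96) and 10 uM ATP plus γ-[33P]ATP, pH 7.5, 70 min at 30 °C, 2% DMSO. Phosphoric acid stop; 33P-labelled substrate captured on phosphocellulose and counted by scintillation.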
On to `CC(C)(C)c1cc(C(=O)N2CCNC(=O)C2(C)C)c(NC(=O)Nc2cccc(-c3cccnc3)c2)s1` [1-(5-tert-butyl-3-(2,2-dimethyl-3-oxopiperazine-1-carbonyl)thiophen-2-yl)-3-(3-(pyridin-3-yl)phenyl)urea], for which the half-maximal inhibitory concentration (IC50) (in general, the concentration needed to halve the response being measured) was less than 100 nM.

As for `CC(C)(C)c1cc(C(=O)N2CCNC(=O)C2(C)C)c(NC(=O)Nc2cccc(-c3ccncc3)c2)s1` [1-(5-tert-butyl-3-(2,2-dimethyl-3-oxopiperazine-1-carbonyl)thiophen-2-yl)-3-(3-(pyridin-4-yl)phenyl)urea], the IC50 is less than 100 nM.

Consider `Cc1ccc(NC(=O)Nc2sc(C(C)(C)C)cc2C(=O)N2CCNC(=O)C2(C)C)cc1C#N` [1-(5-tert-butyl-3-(2,2-dimethyl-3-oxopiperazine-1-carbonyl)thiophen-2-yl)-3-(3-cyano-4-methylphenyl)urea], for which the IC50 was less than 100 nM.

On to `C#Cc1cc(NC(=O)Nc2sc(C(C)(C)C)cc2C(=O)N2CCNC(=O)C2(C)C)ccc1C` [1-(5-tert-butyl-3-(2,2-dimethyl-3-oxopiperazine-1-carbonyl)thiophen-2-yl)-3-(3-ethynyl-4-methylphenyl)urea], for which the IC50 was less than 100 nM.

Regarding `COc1ccc(-c2cc(NC(=O)Nc3sc(C(C)(C)C)cc3C(=O)N3CCNC(=O)C3(C)C)cc(F)c2C)cn1` [1-(5-tert-butyl-3-(2,2-dimethyl-3-oxopiperazine-1-carbonyl)thiophen-2-yl)-3-(3-fluoro-5-(6-methoxypyridin-3-yl)-4-methylphenyl)urea], the IC50 is less than 100 nM.

Take `CC(C)(C)c1cc(C(=O)N2CCNC(=O)C2(C)C)c(NC(=O)Nc2cccc(N3CCOCC3)c2)s1` [1-(5-tert-butyl-3-(2,2-dimethyl-3-oxopiperazine-1-carbonyl)thiophen-2-yl)-3-(3-morpholinophenyl)urea]: the IC50 was less than 10000 nM.

Regarding `CC(C)(C)c1cc(C(=O)N2CCNC(=O)C2(C)C)c(NC(=O)Nc2ccc(F)c(-c3ccc(OCCN4CCOCC4)nc3)c2)s1` [1-(5-tert-butyl-3-(2,2-dimethyl-3-oxopiperazine-1-carbonyl)thiophen-2-yl)-3-(4-fluoro-3-(6-(2-morpholinoethoxy)pyridin-3-yl)phenyl)urea], the IC50 was less than 100 nM.

Take `COc1ccc(NC(=O)Nc2sc(C(C)(C)C)cc2C(=O)N2CCNC(=O)C2(C)C)c(C)c1-c1ccncc1` [1-(5-tert-butyl-3-(2,2-dimethyl-3-oxopiperazine-1-carbonyl)thiophen-2-yl)-3-(4-methoxy-2-methyl-3-(pyridin-4-yl)phenyl)urea]: the IC50 is less than 100 nM.

In the case of `COc1ccc(NC(=O)Nc2sc(C(C)(C)C)cc2C(=O)N2CCNC(=O)C2(C)C)cc1-c1ccncc1` [1-(5-tert-butyl-3-(2,2-dimethyl-3-oxopiperazine-1-carbonyl)thiophen-2-yl)-3-(4-methoxy-3-(pyridin-4-yl)phenyl)urea], the IC50 was less than 100 nM.

With `Cc1ccc(NC(=O)Nc2sc(C(C)(C)C)cc2C(=O)N2CCNC(=O)C2(C)C)cc1C#C[Si](C)(C)C` [1-(5-tert-butyl-3-(2,2-dimethyl-3-oxopiperazine-1-carbonyl)thiophen-2-yl)-3-(4-methyl-3-(2-(trimethylsilyl)ethynyl)phenyl)urea], the IC50 is less than 100 nM.

In the case of `Cc1ccc(NC(=O)Nc2sc(C(C)(C)C)cc2C(=O)N2CCNC(=O)C2(C)C)cc1-c1cnc(N2CCOCC2)nc1` [1-(5-tert-butyl-3-(2,2-dimethyl-3-oxopiperazine-1-carbonyl)thiophen-2-yl)-3-(4-methyl-3-(2-morpholinopyrimidin-5-yl)phenyl)urea], the IC50 was less than 100 nM.

Turning to `Cc1ccc(NC(=O)Nc2sc(C(C)(C)C)cc2C(=O)N2CCNC(=O)C2(C)C)cc1C#CCOCCN1CCOCC1` [1-(5-tert-butyl-3-(2,2-dimethyl-3-oxopiperazine-1-carbonyl)thiophen-2-yl)-3-(4-methyl-3-(3-(2-morpholinoethoxy)prop-1-ynyl)phenyl)urea], the IC50 is less than 100 nM.

Regarding `Cc1ccc(NC(=O)Nc2sc(C(C)(C)C)cc2C(=O)N2CCNC(=O)C2(C)C)cc1C#CCN1CCN(C)CC1` [1-(5-tert-butyl-3-(2,2-dimethyl-3-oxopiperazine-1-carbonyl)thiophen-2-yl)-3-(4-methyl-3-(3-(4-methylpiperazin-1-yl)prop-1-ynyl)phenyl)urea], the IC50 is less than 100 nM.

As for `Cc1ccc(NC(=O)Nc2sc(C(C)(C)C)cc2C(=O)N2CCNC(=O)C2(C)C)cc1C#CCOC1CCOCC1` [1-(5-tert-butyl-3-(2,2-dimethyl-3-oxopiperazine-1-carbonyl)thiophen-2-yl)-3-(4-methyl-3-(3-(tetrahydro-2H-pyran-4-yloxy)prop-1-ynyl)phenyl)urea], the IC50 was less than 100 nM.

Turning to `Cc1ccc(NC(=O)Nc2sc(C(C)(C)C)cc2C(=O)N2CCNC(=O)C2(C)C)cc1N1C(=O)CN(C)C1=O` [1-(5-tert-butyl-3-(2,2-dimethyl-3-oxopiperazine-1-carbonyl)thiophen-2-yl)-3-(4-methyl-3-(3-methyl-2,5-dioxoimidazolidin-1-yl)phenyl)urea], the concentration for half-maximal inhibition (IC50) is less than 100 nM.

With `Cc1ccc(NC(=O)Nc2sc(C(C)(C)C)cc2C(=O)N2CCNC(=O)C2(C)C)cc1C#CCN1CCOCC1` [1-(5-tert-butyl-3-(2,2-dimethyl-3-oxopiperazine-1-carbonyl)thiophen-2-yl)-3-(4-methyl-3-(3-morpholinoprop-1-ynyl)phenyl)urea], the IC50 was less than 100 nM.

On to `Cc1ccc(NC(=O)Nc2sc(C(C)(C)C)cc2C(=O)N2CCNC(=O)C2(C)C)cc1-c1ccc(N2CCN(C)CC2)cn1` [1-(5-tert-butyl-3-(2,2-dimethyl-3-oxopiperazine-1-carbonyl)thiophen-2-yl)-3-(4-methyl-3-(5-(4-methylpiperazin-1-yl)pyridin-2-yl)phenyl)urea], for which the IC50 is less than 100 nM.

For `Cc1ccc(NC(=O)Nc2sc(C(C)(C)C)cc2C(=O)N2CCNC(=O)C2(C)C)cc1-c1ccc(CN2CCOCC2)cn1` [1-(5-tert-butyl-3-(2,2-dimethyl-3-oxopiperazine-1-carbonyl)thiophen-2-yl)-3-(4-methyl-3-(5-(morpholinomethyl)pyridin-2-yl)phenyl)urea], the IC50 was less than 100 nM.

Regarding `Cc1ccc(NC(=O)Nc2sc(C(C)(C)C)cc2C(=O)N2CCNC(=O)C2(C)C)cc1-c1ccc(N2CCOCC2)cn1` [1-(5-tert-butyl-3-(2,2-dimethyl-3-oxopiperazine-1-carbonyl)thiophen-2-yl)-3-(4-methyl-3-(5-morpholinopyridin-2-yl)phenyl)urea], the IC50 was less than 100 nM.

For `Cc1ccc(NC(=O)Nc2sc(C(C)(C)C)cc2C(=O)N2CCNC(=O)C2(C)C)cc1-c1ccc(OCCN2CCNCC2)nc1` [1-(5-tert-butyl-3-(2,2-dimethyl-3-oxopiperazine-1-carbonyl)thiophen-2-yl)-3-(4-methyl-3-(6-(2-(piperazin-1-yl)ethoxy)pyridin-3-yl)phenyl)urea], the IC50 was less than 100 nM.

As for `Cc1ccc(NC(=O)Nc2sc(C(C)(C)C)cc2C(=O)N2CCNC(=O)C2(C)C)cc1-c1ccc(OCCN2CCCCC2)nc1` [1-(5-tert-butyl-3-(2,2-dimethyl-3-oxopiperazine-1-carbonyl)thiophen-2-yl)-3-(4-methyl-3-(6-(2-(piperidin-1-yl)ethoxy)pyridin-3-yl)phenyl)urea], the IC50 was less than 100 nM.

On to `Cc1ccc(NC(=O)Nc2sc(C(C)(C)C)cc2C(=O)N2CCNC(=O)C2(C)C)cc1-c1ccc(OCCN2CCOCC2)nc1` [1-(5-tert-butyl-3-(2,2-dimethyl-3-oxopiperazine-1-carbonyl)thiophen-2-yl)-3-(4-methyl-3-(6-(2-morpholinoethoxy)pyridin-3-yl)phenyl)urea], for which the half-inhibitory concentration (IC50) was less than 100 nM.

On to `Cc1ccc(NC(=O)Nc2sc(C(C)(C)C)cc2C(=O)N2CCNC(=O)C2(C)C)cc1-c1ccc(OCCCN2CCN(C)CC2)nc1` [1-(5-tert-butyl-3-(2,2-dimethyl-3-oxopiperazine-1-carbonyl)thiophen-2-yl)-3-(4-methyl-3-(6-(3-(4-methylpiperazin-1-yl)propoxy)pyridin-3-yl)phenyl)urea], for which the IC50 is less than 100 nM.

For `Cc1ccc(NC(=O)Nc2sc(C(C)(C)C)cc2C(=O)N2CCNC(=O)C2(C)C)cc1-c1ccc(OCCCc2ccccn2)nc1` [1-(5-tert-butyl-3-(2,2-dimethyl-3-oxopiperazine-1-carbonyl)thiophen-2-yl)-3-(4-methyl-3-(6-(3-(pyridin-2-yl)propoxy)pyridin-3-yl)phenyl)urea], the IC50 was less than 100 nM.

For the compound `Cc1ccc(NC(=O)Nc2sc(C(C)(C)C)cc2C(=O)N2CCNC(=O)C2(C)C)cc1-c1ccc(OCCCN2CCOCC2)nc1` [1-(5-tert-butyl-3-(2,2-dimethyl-3-oxopiperazine-1-carbonyl)thiophen-2-yl)-3-(4-methyl-3-(6-(3-morpholinopropoxy)pyridin-3-yl)phenyl)urea], the half-maximal inhibitory concentration (IC50) is less than 100 nM.

As for `Cc1ccc(NC(=O)Nc2sc(C(C)(C)C)cc2C(=O)N2CCNC(=O)C2(C)C)cc1-c1ccc(N2CCN(C)CC2)nc1` [1-(5-tert-butyl-3-(2,2-dimethyl-3-oxopiperazine-1-carbonyl)thiophen-2-yl)-3-(4-methyl-3-(6-(4-methylpiperazin-1-yl)pyridin-3-yl)phenyl)urea], the IC50 was less than 100 nM.

As for `Cc1ccc(NC(=O)Nc2sc(C(C)(C)C)cc2C(=O)N2CCNC(=O)C2(C)C)cc1-c1ccc(CN2CCOCC2)nc1` [1-(5-tert-butyl-3-(2,2-dimethyl-3-oxopiperazine-1-carbonyl)thiophen-2-yl)-3-(4-methyl-3-(6-(morpholinomethyl)pyridin-3-yl)phenyl)urea], the IC50 is less than 100 nM.

For the compound `Cc1ccc(NC(=O)Nc2sc(C(C)(C)C)cc2C(=O)N2CCNC(=O)C2(C)C)cc1-c1ccc(N2CCCCC2)nc1` [1-(5-tert-butyl-3-(2,2-dimethyl-3-oxopiperazine-1-carbonyl)thiophen-2-yl)-3-(4-methyl-3-(6-(piperidin-1-yl)pyridin-3-yl)phenyl)urea], the IC50 is less than 100 nM.

Values taken from US20100041642A1, “UREA INHIBITORS OF MAP KINASES” (LOCUS PHARMACEUTICALS, INC., priority 2008, published 2010).
